Patent US12201640B2, “19-nor C3,3-disubstituted C21-n-pyrazolyl steroids and methods of use thereof” (Sage Therapeutics, Inc., priority 2013, dated 2025)

Key:
GABAA-R = molecular target: T1, GABAA-R (Homo sapiens, UniProt P14867+P47870); assay: Electrophysiological evaluation at GABAA-R (Table 2); assay type: cell-based; settings: GABAA-R electrophysiology; for EC50: read-out: EC50
T1 sequence (P14867 1-456): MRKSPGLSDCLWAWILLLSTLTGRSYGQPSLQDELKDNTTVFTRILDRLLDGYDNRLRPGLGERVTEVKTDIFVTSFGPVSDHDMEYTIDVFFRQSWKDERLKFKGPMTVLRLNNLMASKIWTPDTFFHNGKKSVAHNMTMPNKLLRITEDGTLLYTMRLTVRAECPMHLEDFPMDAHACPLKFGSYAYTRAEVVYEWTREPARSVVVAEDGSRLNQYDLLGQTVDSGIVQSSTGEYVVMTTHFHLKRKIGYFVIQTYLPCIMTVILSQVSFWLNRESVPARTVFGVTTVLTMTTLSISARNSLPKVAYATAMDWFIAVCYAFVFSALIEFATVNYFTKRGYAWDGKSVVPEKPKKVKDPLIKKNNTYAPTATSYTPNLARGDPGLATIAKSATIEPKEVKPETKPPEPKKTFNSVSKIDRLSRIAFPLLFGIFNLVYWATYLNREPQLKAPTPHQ
T1 sequence (P47870 1-512): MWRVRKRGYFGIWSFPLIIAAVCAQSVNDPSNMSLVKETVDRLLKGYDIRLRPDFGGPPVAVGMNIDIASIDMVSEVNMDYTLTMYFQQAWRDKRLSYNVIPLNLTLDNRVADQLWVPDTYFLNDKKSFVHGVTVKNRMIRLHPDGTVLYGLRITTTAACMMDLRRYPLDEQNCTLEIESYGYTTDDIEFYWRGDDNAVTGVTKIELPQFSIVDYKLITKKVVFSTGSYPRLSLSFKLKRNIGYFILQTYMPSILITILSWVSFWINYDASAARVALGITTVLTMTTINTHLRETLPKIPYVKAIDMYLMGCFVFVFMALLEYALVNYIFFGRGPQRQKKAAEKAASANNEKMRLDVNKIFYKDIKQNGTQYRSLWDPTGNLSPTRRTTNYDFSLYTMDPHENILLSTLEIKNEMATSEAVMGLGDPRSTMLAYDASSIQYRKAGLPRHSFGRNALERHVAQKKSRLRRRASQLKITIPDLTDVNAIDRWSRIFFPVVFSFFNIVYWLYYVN
Protocol: (§1) Patch Clamp Electrophysiology of Recombinant α1β2γ2 and α4β3δ GABAA Receptors
(§2) Cellular electrophysiology is used to measure the pharmacological properties of our GABAA receptor modulators in heterologous cell systems. Each compound is tested for its ability to affect GABA mediated currents at a submaximal agonist dose (GABA EC20=2 μM). LTK cells are stably transfected with the α1β2γ2 subunits of the GABA receptor and CHO cells are transiently transfected with the α4β3δ subunits via the Lipofecatamine method. Cells were passaged at a confluence of about 50-80% and then seeded onto 35 mm sterile culture dishes containing 2 ml culture complete medium without antibiotics or antimycotics. Confluent clusters of cells are electrically coupled (Pritchett et al., Science, 1988, 242, 1306-1308.). Because responses in distant cells are not adequately voltage clamped and because of uncertainties about the extent of coupling (Verdoorn et al., Neuron 1990, 4, 919-928.), cells were cultivated at a density that enables the recording of single cells (without visible connections to other cells).
(§3) Whole cell currents were measured with HEKA EPC-10 amplifiers using PatchMaster software or by using the high throughput QPatch platform (Sophion). Bath solution for all experiments contained (in mM): NaCl 137 mM, KCl 4 mM, CaCl2 1.8 mM, MgCl2 1 mM, HEPES 10 mM, D-Glucose 10 mM, pH (NaOH) 7.4. In some cases 0.005% cremophor was also added. Intracellular (pipette) solution contained: KCl 130 mM, MgCl2 1 mM, Mg-ATP 5 mM, HEPES 10 mM, EGTA 5 mM, pH 7.2. During experiments, cells and solutions were maintained at room temperature (19° C.-30° C.). For manual patch clamp recordings, cell culture dishes were placed on the dish holder of the microscope and continuously perfused (1 ml/min) with bath solution. After formation of a Gigaohm seal between the patch electrodes and the cell (pipette resistance range: 2.5 MΩ-6.0 MΩ; seal resistance range: >1 GΩ) the cell membrane across the pipette tip was ruptured to assure electrical access to the cell interior (whole-cell patch-configuration). For experiments using the QPatch system, cells were transferred as suspension to the QPatch system in the bath solution and automated whole cell recordings were performed.
(§4) Cells were voltage clamped at a holding potential of −80 mV. For the analysis of test articles, GABA receptors were stimulated by 2 μM GABA after sequential pre-incubation of increasing concentrations of the test article. Pre-incubation duration was 30 s and the duration of the GABA stimulus was 2 s. Test articles were dissolved in DMSO to form stock solutions (10 mM). Test articles were diluted to 0.01, 0.1, 1, and 10 μM in bath solution. All concentrations of test articles were tested on each cell. The relative percentage potentiation was defined as the peak amplitude in response to GABA EC20 in the presence of the test article divided by the peak amplitude in response to GABA EC20 alone, multiplied by 100.

GABAA receptor α1β2γ2 = molecular target: T2, GABAA receptor α1β2γ2 (Homo sapiens, UniProt P14867+P47870); assay: Patch clamp electrophysiology, Qpatch in Ltk cells; assay type: cell-based; settings: 10 μM test article, GABA EC20 2 μM, read-out: GABA (α1β2γ2) Qpatch in Ltk, % efficacy at 10 μM
T2 construct: expressed in transfected cells
Protocol: as §1, §2, §3, §4

[1] = molecular target: [35S]-TBPS binding, rat brain cortical membranes (GABA receptor complex); assay: Steroid inhibition of [35S]-TBPS binding; settings: 3 nM [35S]-TBPS, 5 μM GABA
Protocol: Steroid Inhibition of TBPS Binding
[35S]-t-Butylbicyclophosphorothionate (TBPS) binding assays using rat brain cortical membranes in the presence of 5 μM GABA has been described (Gee et al, J. Pharmacol. Exp. Ther. 1987, 241, 346-353; Hawkinson et al, Mol. Pharmacol. 1994, 46, 977-985; Lewin, A. H et al., Mol. Pharmacol. 1989, 35, 189-194).
Briefly, cortices are rapidly removed following decapitation of carbon dioxide-anesthetized Sprague-Dawley rats (200-250 g). The cortices are homogenized in 10 volumes of ice-cold 0.32 M sucrose using a glass/teflon homogenizer and centrifuged at 1500×g for 10 min at 4° C. The resultant supernatants are centrifuged at 10,000×g for 20 min at 4° C. to obtain the P2 pellets. The P2 pellets are resuspended in 200 mM NaCl/50 mM Na-K phosphate pH 7.4 buffer and centrifuged at 10,000×g for 10 min at 4° C. This washing procedure is repeated twice and the pellets are resuspended in 10 volumes of buffer. Aliquots (100 μL) of the membrane suspensions are incubated with 3 nM [^35S]-TBPS and 5 μL aliquots of test drug dissolved in dimethyl sulfoxide (DMSO) (final 0.5%) in the presence of 5 μM GABA. The incubation is brought to a final volume of 1.0 mL with buffer. Nonspecific binding is determined in the presence of 2 μM unlabeled TBPS and ranged from 15 to 25%. Following a 90 min incubation at room temp, the assays are terminated by filtration through glass fiber filters (Schleicher and Schuell No. 32) using a cell harvester (Brandel) and rinsed three times with ice-cold buffer. Filter bound radioactivity is measured by liquid scintillation spectrometry. Non-linear curve fitting of the overall data for each drug averaged for each concentration is done using Prism (GraphPad). […] The concentration of test compound producing 50% inhibition (IC50) of specific binding and the maximal extent of inhibition (Imax) are determined for the individual experiments with the same model used for the overall data and then the means±SEM.s of the individual experiments are calculated.
Various compounds are or can be screened to determine their potential as modulators of [^35S]-TBPS binding in vitro. These assays are or can be performed in accordance with the above discussed procedures.

GABAA receptor α4β3δ = molecular target: T3, GABAA receptor α4β3δ (Homo sapiens, UniProt P28472+P48169); assay: Patch clamp electrophysiology, manual patch in CHO cells; assay type: cell-based; settings: 10 μM test article, GABA EC20 2 μM, read-out: GABA (α4β3δ) Manual patch in CHO, % efficacy at 10 μM
T3 construct: expressed in transfected cells; host or cells: CHO cells (transient, lipofection)
Protocol: as §1, §2, §3, §4

T3 sequence (P48169 36-554): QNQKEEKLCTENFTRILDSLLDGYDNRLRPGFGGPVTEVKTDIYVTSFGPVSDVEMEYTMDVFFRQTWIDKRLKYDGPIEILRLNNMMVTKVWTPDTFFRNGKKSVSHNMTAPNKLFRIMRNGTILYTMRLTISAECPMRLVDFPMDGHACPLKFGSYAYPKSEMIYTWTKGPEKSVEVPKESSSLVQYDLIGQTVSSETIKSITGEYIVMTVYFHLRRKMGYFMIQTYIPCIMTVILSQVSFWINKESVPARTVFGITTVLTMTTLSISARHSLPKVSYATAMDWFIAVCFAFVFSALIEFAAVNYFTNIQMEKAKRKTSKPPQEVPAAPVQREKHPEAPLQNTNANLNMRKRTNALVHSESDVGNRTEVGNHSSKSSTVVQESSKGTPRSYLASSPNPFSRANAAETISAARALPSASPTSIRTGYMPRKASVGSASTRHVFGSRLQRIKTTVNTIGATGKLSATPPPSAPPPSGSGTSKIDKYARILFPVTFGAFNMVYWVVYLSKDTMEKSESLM
T3 sequence (P28472 26-473): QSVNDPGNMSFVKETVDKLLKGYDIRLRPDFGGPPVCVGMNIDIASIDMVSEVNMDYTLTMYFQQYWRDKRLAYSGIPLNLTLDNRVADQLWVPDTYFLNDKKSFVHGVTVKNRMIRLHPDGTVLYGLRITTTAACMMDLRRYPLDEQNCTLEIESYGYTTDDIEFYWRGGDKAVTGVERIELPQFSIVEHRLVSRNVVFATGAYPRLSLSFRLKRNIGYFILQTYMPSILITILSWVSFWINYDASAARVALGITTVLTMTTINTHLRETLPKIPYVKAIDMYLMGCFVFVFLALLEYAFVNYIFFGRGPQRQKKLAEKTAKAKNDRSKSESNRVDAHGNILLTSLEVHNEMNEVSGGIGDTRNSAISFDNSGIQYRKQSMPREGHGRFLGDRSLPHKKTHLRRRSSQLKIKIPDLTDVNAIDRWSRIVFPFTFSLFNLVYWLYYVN
T3 sequence (O14764 25-452 partner): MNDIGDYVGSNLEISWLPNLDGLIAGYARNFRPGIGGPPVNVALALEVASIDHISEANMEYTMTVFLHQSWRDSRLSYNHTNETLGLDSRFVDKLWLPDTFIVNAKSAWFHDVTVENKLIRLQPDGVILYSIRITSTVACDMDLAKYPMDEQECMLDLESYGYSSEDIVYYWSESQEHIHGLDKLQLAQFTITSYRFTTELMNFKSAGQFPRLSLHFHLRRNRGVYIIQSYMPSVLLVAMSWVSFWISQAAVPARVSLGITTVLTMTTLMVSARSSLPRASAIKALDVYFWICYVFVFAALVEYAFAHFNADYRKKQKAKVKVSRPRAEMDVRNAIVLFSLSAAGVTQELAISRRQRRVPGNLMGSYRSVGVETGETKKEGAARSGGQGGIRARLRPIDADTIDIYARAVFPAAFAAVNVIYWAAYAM
T2 sequence (P18507 40-475 partner, one chain of several): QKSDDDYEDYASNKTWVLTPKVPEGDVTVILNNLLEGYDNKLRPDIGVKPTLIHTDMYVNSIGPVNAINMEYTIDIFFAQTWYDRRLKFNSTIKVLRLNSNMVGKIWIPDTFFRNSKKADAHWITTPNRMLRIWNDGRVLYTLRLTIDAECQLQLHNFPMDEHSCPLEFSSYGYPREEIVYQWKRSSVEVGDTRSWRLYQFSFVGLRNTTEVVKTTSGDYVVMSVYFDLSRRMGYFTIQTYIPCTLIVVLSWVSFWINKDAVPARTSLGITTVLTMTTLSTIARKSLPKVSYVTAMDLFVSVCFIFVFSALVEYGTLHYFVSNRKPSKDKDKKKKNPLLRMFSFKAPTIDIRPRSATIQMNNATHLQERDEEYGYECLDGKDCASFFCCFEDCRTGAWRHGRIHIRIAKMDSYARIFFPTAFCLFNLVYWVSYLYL

Structure (SMILES) | Emax (GABAA-R) | EC50 (GABAA-R) | Emax at 10 µM (GABAA receptor α1β2γ2) | IC50 [1] | Emax at 10 µM (GABAA receptor α4β3δ)
C[C@@]1(O)CC[C@H]2[C@H](CC[C@@H]3[C@@H]2CC[C@]2(C)[C@@H](C(=O)Cn4ccc(C(F)(F)F)n4)CC[C@@H]32)C1 [SA-1] | 500 to 1000% | 1000 to 2000 nM | > 500% | < 10 nM | 
C[C@@]1(O)CC[C@H]2[C@H](CC[C@@H]3[C@@H]2CC[C@]2(C)[C@@H](C(=O)Cn4nccc4C(F)(F)F)CC[C@@H]32)C1 [SA-2] | 500 to 1000% | > 2000 nM | > 500% | 50 to 100 nM | 
CC(=O)c1ccn(CC(=O)[C@H]2CC[C@H]3[C@@H]4CC[C@@H]5C[C@](C)(O)CC[C@@H]5[C@H]4CC[C@]23C)n1 [SA-5] |  | > 2000 nM | > 500% | < 10 nM | 
C[C@@]1(O)CC[C@H]2[C@H](CC[C@@H]3[C@@H]2CC[C@]2(C)[C@@H](C(=O)Cn4cc(Cl)cn4)CC[C@@H]32)C1 [SA-7] | 0 to 500% | 1000 to 2000 nM | > 500% | 10 to 50 nM | > 500%
C[C@@]1(O)CC[C@H]2[C@H](CC[C@@H]3[C@@H]2CC[C@]2(C)[C@@H](C(=O)Cn4cc([N+](=O)[O-])cn4)CC[C@@H]32)C1 [SA-8] | 0 to 500% | 1000 to 2000 nM | 100 to 500% | 10 to 50 nM | 
C[C@@]1(O)CC[C@H]2[C@H](CC[C@@H]3[C@@H]2CC[C@]2(C)[C@@H](C(=O)Cn4cc(Br)cn4)CC[C@@H]32)C1 [SA-9] | 0 to 500% | 100 to 500 nM | 100 to 500% | 10 to 50 nM | > 500%
Cc1ccnn1CC(=O)[C@H]1CC[C@H]2[C@@H]3CC[C@@H]4C[C@](C)(O)CC[C@@H]4[C@H]3CC[C@]12C [SA-10] | 0 to 500% | > 2000 nM | 100 to 500% | 50 to 100 nM | 
Cc1ccn(CC(=O)[C@H]2CC[C@H]3[C@@H]4CC[C@@H]5C[C@](C)(O)CC[C@@H]5[C@H]4CC[C@]23C)n1 [SA-11] | 500 to 1000% | 1000 to 2000 nM | > 500% | 10 to 50 nM | 
COC[C@@]1(O)CC[C@H]2[C@H](CC[C@@H]3[C@@H]2CC[C@]2(C)[C@@H](C(=O)Cn4cc(C#N)cn4)CC[C@@H]32)C1 [SA-24] |  |  | > 500% | 10 to 50 nM | > 500%
C[C@]12CC[C@H]3[C@@H](CC[C@@H]4C[C@@](O)(CF)CC[C@@H]43)[C@@H]1CC[C@@H]2C(=O)Cn1cc(C#N)cn1 [SA-32] |  |  | > 500% | 10 to 50 nM | > 500%
C[C@@]1(O)CC[C@H]2[C@@H](CC[C@@H]3[C@@H]2CC[C@]2(C)[C@@H](C(=O)Cn4cccn4)CC[C@@H]32)C1 [SB-1] |  |  | 100 to 500% | 100 to 500 nM | 100 to 500%
C[C@@]1(O)CC[C@H]2[C@@H](CC[C@@H]3[C@@H]2CC[C@]2(C)[C@@H](C(=O)Cn4cc(C#N)cn4)CC[C@@H]32)C1 [SB-2] |  |  | 100 to 500% |  | 100 to 500%
COC[C@@]1(O)CC[C@H]2[C@@H](CC[C@@H]3[C@@H]2CC[C@]2(C)[C@@H](C(=O)Cn4cc(C#N)cn4)CC[C@@H]32)C1 [SB-5] |  |  | > 500% | 10 to 50 nM | 100 to 500%
C[C@@]1(O)CC[C@@H]2[C@H]3CC[C@]4(C)[C@@H](C(=O)Cn5cccn5)CC[C@H]4[C@@H]3C[C@@H](F)[C@H]2C1 [SB-10] |  |  | 100 to 500% | 100 to 500 nM | 100 to 500%
C[C@@]1(O)CC[C@@H]2[C@H]3CC[C@]4(C)[C@@H](C(=O)Cn5cc(C#N)cn5)CC[C@H]4[C@@H]3C[C@@H](F)[C@H]2C1 [SB-11] |  |  | 100 to 500% |  | > 500%
C[C@@]1(O)CC[C@@H]2[C@H]3CC[C@]4(C)[C@@H](C(=O)Cn5cc(S(C)(=O)=O)cn5)CC[C@H]4[C@@H]3C[C@@H](F)[C@H]2C1 [SB-15] |  |  | 100 to 500% |  | > 500%
